Reference: patent publication US20160367623A1, “AGONISTS OF GUANYLATE CYCLASE USEFUL FOR THE TREATMENT OF GASTROINTESTINAL DISORDERS, INFLAMMATION, CANCER AND OTHER DISORDERS” (priority 2015, published 2016)
Bridge positions count the residues as written; N and C are the ends. Ends that are not written are not given here.

Tested on: patients with chronic idiopathic constipation (CIC)
Experiment: Second phase 3 CIC trial: CSBM weekly responders by week
Assay type: in vivo, human
Details: MRA
Description: Both trials include a two-week pre-treatment baseline period, a 12-week treatment period, and a two-week post-treatment period. The phase 3 CIC program was designed to support regulatory submission in the U. S.
The primary endpoint for both trials is the proportion of durable overall responders (%), which is the current regulatory endpoint required for U.S. approval in CIC. The FDA has defined a durable overall responder as a patient who fulfills both ≧3 complete spontaneous bowel movements (CSBMs) per week plus an increase of ≧1 CSBM from baseline in the same week, for 9 out of the 12 treatment weeks. In addition, the same patient must be an overall responder for at least 3 of the last 4 treatment weeks in order to be considered a durable overall responder.
Patients were selected using Rome 3 criteria modified for CIC and had (1) fewer than 3 defecations per week, (2) loose stools occurring rarely without laxatives, (3) inadequate criteria for irritable bowel syndrome with constipation (IBS-C), and (4) at least two of the following applied to at least 25% of defecations: (a) straining during evacuation, (b) lumpy or hard stools, (c) sensation of anorectal obstruction or blockage. Rome 3 requires patients to fulfill the criteria for the last 3 months with symptom onset at least 6 months prior to diagnosis.

[1] = Week 2, 6 mg, ITT Population-Excluding Duplicate Patients
[2] = Week 2, Active Combined, ITT Population-Excluding Duplicate Patients
[3] = Week 2, Active Combined, ITT Population
[4] = Week 3, 3 mg, ITT Population-Excluding Duplicate Patients
[5] = Week 3, 6 mg, ITT Population-Excluding Duplicate Patients
[6] = Week 3, Active Combined, ITT Population-Excluding Duplicate Patients
[7] = Week 3, Active Combined, ITT Population
[8] = Week 4, 3 mg, ITT Population-Excluding Duplicate Patients
[9] = Week 4, 6 mg, ITT Population-Excluding Duplicate Patients
[10] = Week 4, Active Combined, ITT Population-Excluding Duplicate Patients
[11] = Week 4, Active Combined, ITT Population
[12] = Week 5, 3 mg, ITT Population-Excluding Duplicate Patients
[13] = Week 5, 6 mg, ITT Population-Excluding Duplicate Patients
[14] = Week 5, Active Combined, ITT Population-Excluding Duplicate Patients

Asn^1-Asp^2-Glu^3-Cys^4-Glu^5-Leu^6-Cys^7-Val^8-Asn^9-Val^10-Ala^11-Cys^12-Thr^13-Gly^14-Cys^15-Leu^16 (NDECELCVNVACTGCL; disulfide 4-12, 7-15) [Plecanatide, uroguanylin analogue, guanylate cyclase-C agonist; (C4:C12, C7:C15) bicycle peptide]
Difference in Proportions (adjusted) (Week 2, 6 mg minus placebo, All Randomized (includes Duplicate Patients)): 0.114
Odds Ratio (adjusted) (Week 2, 6 mg vs placebo, All Randomized (includes Duplicate Patients)): 0.513
CSBM Weekly Responders, n (%) (Week 2, 6 mg, All Randomized (includes Duplicate Patients)): 132 (28.0) n (%)
CSBM Weekly Responders, n (%) (Week 2, 6 mg, ITT Population): 123 (27.4) n (%)
Non-Responders, n (%) (Week 2, 6 mg, ITT Population): 326 (72.6) n (%)
CSBM Weekly Responders, n (%) [1]: 123 (27.8) n (%)
Non-Responders, n (%) [1]: 320 (72.2) n (%)
CSBM Weekly Responders, n (%) (Week 2, Active Combined, All Randomized (includes Duplicate Patients)): 252 (26.8) n (%)
Difference in Proportions (adjusted) (Week 2, 3 mg minus placebo, ITT Population-Excluding Duplicate Patients): 0.086
Difference in Proportions (adjusted) (Week 2, 3 mg minus placebo, ITT Population): 0.087
Odds Ratio (adjusted) (Week 2, 3 mg vs placebo, ITT Population-Excluding Duplicate Patients): 0.592
Odds Ratio (adjusted) (Week 2, 3 mg vs placebo, ITT Population): 0.59
Difference in Proportions (adjusted) (Week 2, 6 mg minus placebo, ITT Population-Excluding Duplicate Patients): 0.111
Difference in Proportions (adjusted) (Week 2, 6 mg minus placebo, ITT Population): 0.108
Odds Ratio (adjusted) (Week 2, 6 mg vs placebo, ITT Population-Excluding Duplicate Patients): 0.523
Odds Ratio (adjusted) (Week 2, 6 mg vs placebo, ITT Population): 0.53
CSBM Weekly Responders, n (%) [2]: 233 (26.6) n (%)
Non-Responders, n (%) [2]: 644 (73.4) n (%)
CSBM Weekly Responders, n (%) [3]: 235 (26.3) n (%)
Non-Responders, n (%) [3]: 657 (73.7) n (%)
Difference in Proportions (adjusted) (Week 3, 3 mg minus placebo, All Randomized (includes Duplicate Patients)): 0.070
Odds Ratio (adjusted) (Week 3, 3 mg vs placebo, All Randomized (includes Duplicate Patients)): 0.691
CSBM Weekly Responders, n (%) (Week 3, 3 mg, All Randomized (includes Duplicate Patients)): 135 (28.7) n (%)
CSBM Weekly Responders, n (%) (Week 3, 3 mg, ITT Population): 125 (28.2) n (%)
Non-Responders, n (%) (Week 3, 3 mg, ITT Population): 318 (71.8) n (%)
CSBM Weekly Responders, n (%) [4]: 122 (28.1) n (%)
Non-Responders, n (%) [4]: 312 (71.9) n (%)
Difference in Proportions (adjusted) (Week 3, 6 mg minus placebo, All Randomized (includes Duplicate Patients)): 0.056
Odds Ratio (adjusted) (Week 3, 6 mg vs placebo, All Randomized (includes Duplicate Patients)): 0.738
CSBM Weekly Responders, n (%) (Week 3, 6 mg, ITT Population): 120 (26.7) n (%)
Non-Responders, n (%) (Week 3, 6 mg, ITT Population): 329 (73.3) n (%)
CSBM Weekly Responders, n (%) [5]: 119 (26.9) n (%)
Non-Responders, n (%) [5]: 324 (73.1) n (%)
Difference in Proportions (adjusted) (Week 3, 3 mg minus placebo, ITT Population-Excluding Duplicate Patients): 0.054
Difference in Proportions (adjusted) (Week 3, 3 mg minus placebo, ITT Population): 0.057
Odds Ratio (adjusted) (Week 3, 3 mg vs placebo, ITT Population-Excluding Duplicate Patients): 0.750
Odds Ratio (adjusted) (Week 3, 3 mg vs placebo, ITT Population): 0.739
Difference in Proportions (adjusted) (Week 3, 6 mg minus placebo, ITT Population-Excluding Duplicate Patients): 0.042
Difference in Proportions (adjusted) (Week 3, 6 mg minus placebo, ITT Population): 0.043
Odds Ratio (adjusted) (Week 3, 6 mg vs placebo, ITT Population-Excluding Duplicate Patients): 0.798
Odds Ratio (adjusted) (Week 3, 6 mg vs placebo, ITT Population): 0.796
CSBM Weekly Responders, n (%) [6]: 241 (27.5) n (%)
Non-Responders, n (%) [6]: 636 (72.5) n (%)
CSBM Weekly Responders, n (%) [7]: 245 (27.5) n (%)
Non-Responders, n (%) [7]: 647 (72.5) n (%)
Difference in Proportions (adjusted) (Week 4, 3 mg minus placebo, All Randomized (includes Duplicate Patients)): 0.093
Odds Ratio (adjusted) (Week 4, 3 mg vs placebo, All Randomized (includes Duplicate Patients)): 0.611
CSBM Weekly Responders, n (%) (Week 4, 3 mg, ITT Population): 132 (29.8) n (%)
Non-Responders, n (%) (Week 4, 3 mg, ITT Population): 311 (70.2) n (%)
CSBM Weekly Responders, n (%) [8]: 130 (30.0) n (%)
Non-Responders, n (%) [8]: 304 (70.0) n (%)
Difference in Proportions (adjusted) (Week 4, 6 mg minus placebo, All Randomized (includes Duplicate Patients)): 0.082
Odds Ratio (adjusted) (Week 4, 6 mg vs placebo, All Randomized (includes Duplicate Patients)): 0.644
CSBM Weekly Responders, n (%) (Week 4, 6 mg, ITT Population): 127 (28.3) n (%)
Non-Responders, n (%) (Week 4, 6 mg, ITT Population): 322 (71.7) n (%)
CSBM Weekly Responders, n (%) [9]: 126 (28.4) n (%)
Non-Responders, n (%) [9]: 317 (71.6) n (%)
Difference in Proportions (adjusted) (Week 4, 3 mg minus placebo, ITT Population-Excluding Duplicate Patients): 0.082
Difference in Proportions (adjusted) (Week 4, 3 mg minus placebo, ITT Population): 0.082
Odds Ratio (adjusted) (Week 4, 3 mg vs placebo, ITT Population-Excluding Duplicate Patients): 0.650
Odds Ratio (adjusted) (Week 4, 3 mg vs placebo, ITT Population): 0.648
Difference in Proportions (adjusted) (Week 4, 6 mg minus placebo, ITT Population-Excluding Duplicate Patients): 0.067
Difference in Proportions (adjusted) (Week 4, 6 mg minus placebo, ITT Population): 0.067
Odds Ratio (adjusted) (Week 4, 6 mg vs placebo, ITT Population-Excluding Duplicate Patients): 0.698
Odds Ratio (adjusted) (Week 4, 6 mg vs placebo, ITT Population): 0.697
CSBM Weekly Responders, n (%) [10]: 256 (29.2) n (%)
Non-Responders, n (%) [10]: 621 (70.8) n (%)
CSBM Weekly Responders, n (%) [11]: 259 (29.0) n (%)
Non-Responders, n (%) [11]: 633 (71.0) n (%)
Difference in Proportions (adjusted) (Week 5, 3 mg minus placebo, All Randomized (includes Duplicate Patients)): 0.119
Odds Ratio (adjusted) (Week 5, 3 mg vs placebo, All Randomized (includes Duplicate Patients)): 0.560
CSBM Weekly Responders, n (%) (Week 5, 3 mg, ITT Population): 154 (34.8) n (%)
Non-Responders, n (%) (Week 5, 3 mg, ITT Population): 289 (65.2) n (%)
CSBM Weekly Responders, n (%) [12]: 153 (35.3) n (%)
Non-Responders, n (%) [12]: 281 (64.7) n (%)
Difference in Proportions (adjusted) (Week 5, 6 mg minus placebo, All Randomized (includes Duplicate Patients)): 0.061
Odds Ratio (adjusted) (Week 5, 6 mg vs placebo, All Randomized (includes Duplicate Patients)): 0.731
CSBM Weekly Responders, n (%) (Week 5, 6 mg, ITT Population): 133 (29.6) n (%)
Non-Responders, n (%) (Week 5, 6 mg, ITT Population): 316 (70.4) n (%)
CSBM Weekly Responders, n (%) [13]: 132 (29.8) n (%)
Non-Responders, n (%) [13]: 311 (70.2) n (%)
Difference in Proportions (adjusted) (Week 5, 3 mg minus placebo, ITT Population-Excluding Duplicate Patients): 0.107
Difference in Proportions (adjusted) (Week 5, 3 mg minus placebo, ITT Population): 0.105
Odds Ratio (adjusted) (Week 5, 3 mg vs placebo, ITT Population-Excluding Duplicate Patients): 0.596
Odds Ratio (adjusted) (Week 5, 3 mg vs placebo, ITT Population): 0.602
Difference in Proportions (adjusted) (Week 5, 6 mg minus placebo, ITT Population-Excluding Duplicate Patients): 0.053
Difference in Proportions (adjusted) (Week 5, 6 mg minus placebo, ITT Population): 0.054
Odds Ratio (adjusted) (Week 5, 6 mg vs placebo, ITT Population-Excluding Duplicate Patients): 0.764
Odds Ratio (adjusted) (Week 5, 6 mg vs placebo, ITT Population): 0.762
CSBM Weekly Responders, n (%) [14]: 285 (32.5) n (%)
Non-Responders, n (%) [14]: 592 (67.5) n (%)
CSBM Weekly Responders, n (%) (Week 5, Active Combined, ITT Population): 287 (32.2) n (%)
